# Experimental data as given in paper PMC8725163 (Acta Crystallographica. Section D, Structural Biology, 2022).
# Target: T1, BpsDsbA (oxidized) (Burkholderia pseudomallei, UniProt Q63Y08)
# T1 construct: gene dsbA
# Assay: biochemical
# T1 sequence (Q63Y08 16-212 limits assumed): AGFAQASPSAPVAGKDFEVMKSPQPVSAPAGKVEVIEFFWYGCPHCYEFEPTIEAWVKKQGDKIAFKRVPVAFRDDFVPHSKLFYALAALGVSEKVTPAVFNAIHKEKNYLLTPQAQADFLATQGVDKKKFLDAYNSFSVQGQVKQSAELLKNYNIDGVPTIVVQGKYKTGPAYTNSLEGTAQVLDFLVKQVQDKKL
smiles,measurement,value
"COc1ccc(S(=O)(=O)Nc2ccccc2)cc1 [compound 2, 4-methoxy-N-phenylbenzenesulfonamide]",Kd,> 2000 µM
